Experimental findings from patent publication US20200095236A1, “ANTIBACTERIAL COMPOUNDS” (FORGE THERAPEUTICS, INC., priority 2017, published 2020) are described below.

One may read the MIC as the lowest concentration found to suppress growth. Usually IC50 stands for the point on the concentration scale where inhibition reaches its midpoint.

Values after ≈ are worked out from the molar mass of the structure shown. Like-named read-outs stand apart in the source and are kept apart here.

One assay deals with K. pneumoniae. The assay is described as follows: Bacterial susceptibility testing, MIC by broth microdilution (CLSI). Type of assay: cell-based. Conditions: Klebsiella pneumoniae, read-out: K. pneumoniae MIC. As to the method:
(§1) Minimal inhibitory concentrations (MIC) were determined by the broth microdilution method in accordance with the Clinical and Laboratory Standards Institute (CLSI) guidelines. In brief, organism suspensions were adjusted to a 0.5 McFarland standard to yield a final inoculum between 3×10^5 and 7×10^5 colony-forming units (CFU)/mL. Drug dilutions and inocula were made in sterile, cation adjusted Mueller-Hinton Broth (Beckton Dickinson). An inoculum volume of 100 μL was added to wells containing 100 μL of broth with 2-fold serial dilutions of drug. All inoculated microdilution trays were incubated in ambient air at 35° C. for 18-24 h. Following incubation, the lowest concentration of the drug that prevented visible growth (OD600 nm<0.05) was recorded as the MIC. Performance of the assay was monitored by the use of laboratory quality-control strains and levofloxacin, a compound with a defined MIC spectrum, in accordance with CLSI guidelines.
A general note: Dilution methods test growth across graded concentrations, often in twofold steps.

Another assay relates to S. aureus. The description is as above. Type of assay: cell-based. Conditions: Staphylococcus aureus, read-out: S. aureus MIC. As to the method: as §1
The subject of another assay is E. coli. Described as above. Type of assay: cell-based. Conditions: Escherichia coli, read-out: E. coli MIC. Here is the method:
as §1

The next assay deals with E. coli LpxC (Escherichia coli, UniProt P0A725). The assay is described as follows: LpxC Binding Assay (Rapid Fire MS assay). It is filed as biochemical.
In assay [1] the test system is TLR-4 activity of A. baumannii culture supernatants. The assay is described as follows: TLR4 assay: TLR4 activity of A. baumannii culture supernatants in HEK-Blue-hTLR4 cells. It is filed as cell-based. The settings on record: Acinetobacter baumannii, HEK-Blue hTLR4, read-out: % TLR-4 activity. Here is the method:
The TLR4 assay measures activity of diluted filter-sterilized A. baumannii culture supernatants. The assay was performed as described in Lin et al, Mbio, 2012. Briefly, A. baumannii was passaged to mid log-phase in the presence of Forge LpxC inhibitors. Culture supernatants were harvested, filter-sterilized and diluted 1:1000. TLR4 activity of the supernatants was tested using HEK-Blue-hTLR4 cells (Invivogen) that carry NF-kB and AP-1 driven SEAP (secreted embryonic alkaline phosphatase) reporter gene.
Exemplary TLR4 assay data (% TLR-4 activity) for compounds in embodiments of the disclosure.

Setting [2] is: broth microdilution, 35° C., 18-24 h.

Sequence of E. coli LpxC (P0A725 whole entry): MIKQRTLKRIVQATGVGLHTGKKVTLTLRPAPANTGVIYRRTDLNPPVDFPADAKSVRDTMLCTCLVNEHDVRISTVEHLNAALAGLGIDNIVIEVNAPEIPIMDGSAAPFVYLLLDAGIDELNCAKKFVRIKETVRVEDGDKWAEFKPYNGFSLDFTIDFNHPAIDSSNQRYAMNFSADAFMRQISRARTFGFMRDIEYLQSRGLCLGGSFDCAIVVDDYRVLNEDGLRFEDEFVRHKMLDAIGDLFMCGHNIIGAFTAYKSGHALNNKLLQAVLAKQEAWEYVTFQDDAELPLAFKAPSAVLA

Take `O=C(NCC(F)F)C(Cc1ccc(C#Cc2ccc(CN3CCOCC3)cc2)cc1)c1nc[nH]c(=O)c1O` (stereo not drawn) [Compound 1, N-(2,2-difluoroethyl)-2-(5-hydroxy-6-oxo-1,6-dihydropyrimidin-4-yl)-3-(4-((4-(morpholinomethyl)phenyl)ethynyl)phenyl) propanamide]: the minimum inhibitory concentration (MIC) in the assay with K. pneumoniae (setting [2]) was 1 to 8 µg/mL (≈ 1.91 to 15.3 µM); in the assay on S. aureus (setting [2]), greater than 32 µg/mL; with E. coli (setting [2]), less than 1 µg/mL. At E. coli LpxC, this molecule registered a 50% inhibitory concentration (IC50) of less than 10 nM. Further, the activity at 4 µg/mL in assay [1] is less than 20%. Further, in assay [1], the activity at 8 µg/mL was less than 20%. In assay [1], the activity at 16 µg/mL is less than 20%.
As for `O=C(NCC(F)(F)F)C(Cc1ccc(C#Cc2ccc(CN3CCOCC3)cc2)cc1)c1nc[nH]c(=O)c1O` (stereo not drawn) [Compound 2, 2-(5-hydroxy-6-oxo-1,6-dihydropyrimidin-4-yl)-3-(4-((4-(morpholinomethyl)phenyl)ethynyl)phenyl)-N-(2,2,2-trifluoroethyl) propanamide], in the assay on K. pneumoniae (setting [2]), the minimum inhibitory concentration (MIC) is 1 to 8 µg/mL (≈ 1.85 to 14.8 µM). For the same molecule, in the assay on S. aureus (setting [2]), the MIC is greater than 32 µg/mL. Further, the MIC in the assay on E. coli (setting [2]) is less than 1 µg/mL. Moreover, the IC50 at E. coli LpxC fell in the range of 10 to 50 nM. Besides, in assay [1], the activity at 4 µg/mL is less than 20%, the activity at 8 µg/mL was less than 20% and the activity at 16 µg/mL is less than 20%.
Take `O=C(CF)NCC(Cc1ccc(C#Cc2ccc(CN3CCOCC3)cc2)cc1)c1nc[nH]c(=O)c1O` (stereo not drawn) [Compound 12, 2-fluoro-N-(2-(5-hydroxy-6-oxo-1,6-dihydropyrimidin-4-yl)-3-(4-((4-(morpholinomethyl)phenyl)ethynyl)phenyl)propyl) acetamide]: the values for the MIC in the assay on K. pneumoniae, with S. aureus and in the assay on E. coli were 1 to 8 µg/mL (≈ 1.98 to 15.9 µM), greater than 32 µg/mL and less than 1 µg/mL, respectively. The 50% inhibitory concentration (IC50) at E. coli LpxC lay in the range of 10 to 50 nM.
Regarding `O=C1CCCN1Cc1ccc(C#Cc2ccc(CC(CNCCF)c3nc[nH]c(=O)c3O)cc2)cc1` (stereo not drawn) [Compound 55, 6-(1-((2-fluoroethyl)amino)-3-(4-((4-((2-oxopyrrolidin-1-yl)methyl)phenyl)ethynyl)phenyl)propan-2-yl)-5-hydroxypyrimidin-4(3H)-one], at E. coli LpxC, the IC50 was 10 to 50 nM. Further, in assay [1], the activity at 4 µg/mL was greater than 80%, the activity at 8 µg/mL was 20 to 50% and the activity at 16 µg/mL was in the range of 20 to 50%.
`O=c1[nH]cnc(C(CNCC(F)F)Cc2ccc(C#Cc3ccc(CN4CCOCC4)cc3)cc2)c1O` (stereo not drawn) [Compound 57, 6-(1-((2,2-difluoroethyl)amino)-3-(4-((4-(morpholinomethyl)phenyl)ethynyl)phenyl)propan-2-yl)-5-hydroxypyrimidin-4(3H)-one] registered an IC50 on E. coli LpxC of 100 to 1000 nM. In addition, in assay [1], the activity at 4 µg/mL is greater than 80%, the activity at 8 µg/mL lay within 50 to 80% and the activity at 16 µg/mL fell in the range of 20 to 50%.
On E. coli LpxC, `CO[C@@H]1CCN(Cc2ccc(C#Cc3ccc(CC(C(=O)NCC(F)F)c4nc[nH]c(=O)c4O)cc3)cc2)C1` (stereo partly drawn) [Compound 106, N-(2,2-difluoroethyl)-2-(5-hydroxy-6-oxo-1,6-dihydropyrimidin-4-yl)-3-(4-((4-(((R)-3-methoxypyrrolidin-1-yl)methyl)phenyl)ethynyl)phenyl) propanamide] displayed a half-maximal inhibitory concentration (IC50) of 100 to 1000 nM. Also, in assay [1], the activity at 4 µg/mL was 50 to 80%, the activity at 8 µg/mL lay within 50 to 80% and the activity at 16 µg/mL lay in the range of 20 to 50%.
On E. coli LpxC, `COCCNC(=O)C(Cc1ccc(C#Cc2ccc(CN3CCOCC3)cc2)cc1)c1nc[nH]c(=O)c1O` (stereo not drawn) [Compound 153, 2-(5-hydroxy-6-oxo-1,6-dihydropyrimidin-4-yl)-N-(2-methoxyethyl)-3-(4-((4-(morpholinomethyl)phenyl)ethynyl)phenyl) propanamide] returned an IC50 of 10 to 50 nM. Further, in assay [1], the activity at 4 µg/mL was greater than 80%, the activity at 8 µg/mL lay in the range of 50 to 80% and the activity at 16 µg/mL was less than 20%.
Regarding `O=C(NC1CC(F)(F)C1)C(Cc1ccc(C#Cc2ccc(CN3CCOCC3)cc2)cc1)c1nc[nH]c(=O)c1O` (stereo not drawn) [Compound 154, N-(3,3-difluorocyclobutyl)-2-(5-hydroxy-6-oxo-1,6-dihydropyrimidin-4-yl)-3-(4-((4-(morpholinomethyl)phenyl)ethynyl)phenyl) propanamide], the IC50 on E. coli LpxC is 50 to 100 nM.
The same measure, in the same setting: under `N#CC1CN(Cc2ccc(C#Cc3ccc(CC(C(=O)NCCF)c4nc[nH]c(=O)c4O)cc3)cc2)C1` (stereo not drawn) [Compound 165, 3-(4-((4-((3-cyanoazetidin-1-yl)methyl)phenyl)ethynyl)phenyl)-N-(2-fluoroethyl)-2-(5-hydroxy-6-oxo-1,6-dihydropyrimidin-4-yl)propanamide] stands less than 10 nM.
`O=c1[nH]cnc(C(CNCCF)Cc2ccc(C#Cc3ccc(CO)cc3)cc2)c1O` (stereo not drawn) [Compound 195, 6-(1-((2-fluoroethyl)amino)-3-(4-((4-(hydroxymethyl)phenyl)ethynyl)phenyl)propan-2-yl)-5-hydroxypyrimidin-4(3H)-one] returned an IC50 at E. coli LpxC of 100 to 1000 nM. Further, in assay [1], the activity at 4 µg/mL was in the range of 50 to 80%, the activity at 8 µg/mL was less than 20% and the activity at 16 µg/mL was less than 20%.
`O=c1[nH]cnc(C(CNCCF)Cc2ccc(C#Cc3ccc(CNC4CCOC4)cc3)cc2)c1O` (stereo not drawn) [Compound 198, 6-(1-((2-fluoroethyl)amino)-3-(4-((4-(((tetrahydrofuran-3-yl)amino)methyl)phenyl)ethynyl)phenyl)propan-2-yl)-5-hydroxypyrimidin-4(3H)-one] showed an IC50 on E. coli LpxC of 100 to 1000 nM.
Regarding `O=c1[nH]cnc(C(CNCCF)Cc2ccc(C#Cc3ccc(CNC4COC4)cc3)cc2)c1O` (stereo not drawn) [Compound 207, 6-(1-((2-fluoroethyl)amino)-3-(4-((4-((oxetan-3-ylamino)methyl)phenyl)ethynyl)phenyl)propan-2-yl)-5-hydroxypyrimidin-4(3H)-one], the IC50 at E. coli LpxC fell in the range of 50 to 100 nM.
Still for that read-out and setting: under `N#CC1CN(Cc2ccc(C#Cc3ccc(CC(CNCCF)c4nc[nH]c(=O)c4O)cc3)cc2)C1` (stereo not drawn) [Compound 209, 1-(4-((4-(3-((2-fluoroethyl)amino)-2-(5-hydroxy-6-oxo-1,6-dihydropyrimidin-4-yl)propyl)phenyl)ethynyl)benzyl) azetidine-3-carbonitrile] stands 10 to 50 nM.
As for `O=c1[nH]cnc(C(CNCCF)Cc2ccc(C#Cc3ccc(CN4CC5CCC(C4)O5)cc3)cc2)c1O` (stereo not drawn) [Compound 215, 6-(1-(4-((4-((8-oxa-3-azabicyclo[3.2.1]octan-3-yl)methyl)phenyl)ethynyl)phenyl)-3-((2-fluoroethyl)amino)propan-2-yl)-5-hydroxypyrimidin-4(3H)-one], the IC50 at E. coli LpxC lay in the range of 100 to 1000 nM. Also, in assay [1], the activity at 4 µg/mL fell in the range of 20 to 50%, the activity at 8 µg/mL lay in the range of 20 to 50% and the activity at 16 µg/mL was less than 20%.
In turn, `C[C@@H]1CN(Cc2ccc(C#Cc3ccc(CC(CNCCF)c4nc[nH]c(=O)c4O)cc3)cc2)C[C@@H](C)O1` (stereo partly drawn) [Compound 218, 6-(1-(4-((4-(((2R,6R)-2,6-dimethylmorpholino)methyl)phenyl)ethynyl)phenyl)-3-((2-fluoroethyl)amino)propan-2-yl)-5-hydroxypyrimidin-4(3H)-one] gave a 50% inhibitory concentration (IC50) on E. coli LpxC of 100 to 1000 nM.
The molecule `O=c1[nH]cnc(CCc2ccc(C#Cc3ccc(CNC4CC(O)C4)cc3)cc2)c1O` (stereo not drawn) [Compound 243, 5-hydroxy-6-(4-((4-(((3-hydroxycyclobutyl)amino)methyl)phenyl)ethynyl)phenethyl)pyrimidin-4(3H)-one] registered an IC50 on E. coli LpxC of 10 to 50 nM.
Turning to `O=c1[nH]cnc(CCc2ccc(C#Cc3ccc(CNC4CCOCC4)cc3)cc2)c1O` [Compound 244, 5-hydroxy-6-(4-((4-(((tetrahydro-2H-pyran-4-yl)amino)methyl)phenyl)ethynyl)phenethyl)pyrimidin-4(3H)-one], the MIC is less than 1 µg/mL in the assay on K. pneumoniae (setting [2]), greater than 32 µg/mL in the assay on S. aureus (setting [2]) and less than 1 µg/mL in the assay with E. coli (setting [2]). On E. coli LpxC, the IC50 lay in the range of 100 to 1000 nM.
On to `O=c1[nH]cnc(CCc2ccc(C#Cc3cccc(Cl)c3)cc2)c1O` [Compound 248, 6-(4-((3-chlorophenyl)ethynyl)phenethyl)-5-hydroxypyrimidin-4(3H)-one], for which the MIC in the assay with K. pneumoniae (setting [2]) and in the assay with E. coli (setting [2]) was greater than 32 µg/mL throughout. Further, the 50% inhibitory concentration (IC50) at E. coli LpxC lay within 100 to 1000 nM.
As to `O=c1[nH]cnc(C(CNCc2cccnc2)Cc2ccc(C#Cc3ccc(CN4CCOCC4)cc3)cc2)c1O` (stereo not drawn) [Compound 250, 5-hydroxy-6-(1-(4-((4-(morpholinomethyl)phenyl)ethynyl)phenyl)-3-((pyridin-3-ylmethyl)amino)propan-2-yl)pyrimidin-4(3H)-one], the MIC was greater than 32 µg/mL with K. pneumoniae (setting [2]) and less than 1 µg/mL with E. coli (setting [2]). The 50% inhibitory concentration (IC50) at E. coli LpxC is less than 10 nM.
In the case of “N-(2,2-difluoroethyl)- 2-(5-hydroxy-6-oxo- 1,6-dihydropyrimidin- 4-yl)-3-(4-((4- (hydroxymethyl) phenyl)ethynyl)phenyl) propanamide [Compound 108]”, on E. coli LpxC, the IC50 was in the range of 10 to 50 nM.
